In assay [1] the target is Myeloid Cell Leukemia 1 (Mcl-1) (Homo sapiens (Human), UniProt Q07820). In words: Terbium labeled Mcl-1 HTRF binding assay with Cy5-labeled BIM BH3 peptide. The following applies: Tb-Mcl-1 25 pM, Cy5 Bim peptide 8 nM; Ki=IC50/(1+[L]/Kd), [L]=8 nM, Kd=10 nM. As for the experimental part:
Terbium labeled Myeloid Cell Leukemia 1 (Mcl-1) homogeneous time-resolved fluorescence (HTRF) binding assay utilizing the BIM BH3 peptide (H2N—(C/Cy5Mal) WIAQELRRIGDEFN-OH) as the binding partner for Mcl-1.
This assay evaluated inhibition of the BH3 domain: Mcl-1 interaction by measuring the displacement of Cy5-labeled BIM BH3 peptide (H2N—(C/Cy5Mal) WIAQELRRIGDEFN-OH) in the HTRF assay format.
The following assay and stock buffers were prepared for use in the assay: (a) Stock buffer: 10 mM Tris-HCl, pH=7.5+150 mM NaCl, filtered, sterilized, and stored at 4° C.; and (b) 1× assay buffer, where the following ingredients were added fresh to stock buffer: 2 mM dithiothreitol (DTT), 0.0025% Tween-20, 0.1 mg/mL bovine serum albumin (BSA). The 1×Tb-Mcl-1+Cy5 Bim peptide solution was prepared by diluting the protein stock solution using the 1× assay buffer (b) to 25 pM Tb-Mcl-1 and 8 nM Cy5 Bim peptide.
Using the Acoustic ECHO, 100 nL of 100× test compound(s) were dispensed into individual wells of a white 384-well Perkin Elmer Proxiplate, for a final compound concentration of 1× and final DMSO concentration of 1%. Inhibitor control and neutral control (NC, 100 nL of 100% DMSO) were stamped into columns 23 and 24 of assay plate, respectively. Into each well of the plate was then dispensed 10 μL of the 1×Tb-Mcl-1+Cy5 Bim peptide solution. The plate was centrifuged with a cover plate at 1000 rpm for 1 minute, then incubated for 60 minutes at room temperature with plates covered.
The TR-FRET signal was read on an BMG PHERAStar FSX MicroPlate Reader at room temperature using the HTRF optic module (HTRF: excitation: 337 nm, light source: laser, emission A: 665 nm, emission B: 620 nm, integration start: 60 μs, integration time: 400 μs).
The BMG PHERAStar FSX MicroPlate Reader was used to measure fluorescence intensity at two emission wavelengths—665 nm and 620 nm—and report relative fluorescence units (RFU) for both emissions, as well as a ratio of the emissions (665 nm/620 nm)*10,000. The RFU values were normalized to percent inhibition as follows:
% inhibition=(((NC−IC)−(compound−IC))/(NC−IC))*100
where IC (inhibitor control, low signal)=mean signal of 1×Tb-MCl-1+Cy5 Bim peptide+ inhibitor control or 100% inhibition of Mcl-1; NC (neutral control, high signal)=mean signal 1×Tb-MCl-1+Cy5 Bim peptide with DMSO only or 0% inhibition
An 11-point dose response curve was generated to determine IC50 values (using GenData) based on the following equation:
Y=Bottom+(Top−Bottom)/(1+10^((log IC50−X)*HillSlope))
where Y=% inhibition in the presence of X inhibitor concentration; Top=100% inhibition derived from the IC (mean signal of Mcl-1+inhibitor control); Bottom=0% inhibition derived from the NC (mean signal of Mcl-1+DMSO); Hillslope=Hill coefficient; and IC50=concentration of compound with 50% inhibition in relation to top/neutral control (NC).
In this assay [L]=8 nM and Kd=10 nM
Representative compounds of the present invention were tested according to the procedure as described above, with results as listed in the Table below (n.d. means not determined).
(In general: Time-resolved FRET reads energy transfer from a long-lived donor to a nearby acceptor.)

In assay [2] the test system is MOLP-8 human multiple myeloma cell line. In words: Caspase-Glo 3/7 apoptosis induction assay in MOLP-8 cells. It is filed as cell-based. The following applies: MOLP8 cells, 2 hours at 37° C., averaged over all runs on all batches. From the text:
MCL-1 is a regulator of apoptosis and is highly over-expressed in tumor cells that escape cell death. The assay evaluates the cellular potency of small-molecule compounds targeting regulators of the apoptosis pathway, primarily MCL-1, Bfl-1, Bcl-2, and other proteins of the Bcl-2 family. Protein-protein inhibitors disrupting the interaction of anti-apoptotic regulators with BH3-domain proteins initiate apoptosis.
The Caspase-Glo® 3/7 Assay is a luminescent assay that measures caspase-3 and -7 activities in purified enzyme preparations or cultures of adherent or suspension cells. The assay provides a proluminescent caspase-3/7 substrate, which contains the tetrapeptide sequence DEVD. This substrate is cleaved to release aminoluciferin, a substrate of luciferase used in the production of light. Addition of the single Caspase-Glo® 3/7 Reagent in an “add-mix-measure” format results in cell lysis, followed by caspase cleavage of the substrate and generation of a “glow-type” luminescent signal.
This assay uses the MOLP-8 human multiple myeloma cell line, which is sensitive to MCL-1 inhibition.
Cell cultures were maintained between 0.2 and 2.0×10^6 cells/mL. The cells were harvested by collection in 50 mL conical tubes. The cells were then pelleted at 500 g for 5 mins before removing supernatant and resuspension in fresh pre-warmed culture medium. The cells were counted and diluted as needed.
The assay reagent was prepared by transferring the buffer solution to the substrate vial and mixing. The solution may be stored for up to 1 week at 4° C. with negligible loss of signal.
Compounds were delivered in assay-ready plates (Proxiplate) and stored at −20° C.
Assays always include 1 reference compound plate containing reference compounds. The plates were spotted with 40 nL of compounds (0.5% DMSO final in cells; serial dilution; 30 μM highest conc. 1/3 dilution, 10 doses, duplicates). The compounds were used at room temperature and 4 μL of pre-warmed media was added to all wells except column 2 and 23. The negative control was prepared by adding 1% DMSO in media. The positive control was prepared by adding the appropriate positive control compound in final concentration of 60 μM in media. The plate was prepared by adding 4 μL negative control to column 23, 4 μL positive control to column 2 and 4 μL cell suspension to all wells in the plate. The plate with cells was then incubated at 37° C. for 2 hours. The assay signal reagent is the Caspase-Glo solution described above, and 8 μL was added to all wells. The plates were then sealed and measured after 30 minutes.
The activity of a test compound was calculated as percent change in apoptosis induction as follows:
LC=median of the Low Control values
HC=Median of the High Control values
=30 μM of positive control
=100% apoptosis induction
% Effect (AC50)=100−((sample−LC)/(HC−LC))*100
% Control=(sample/HC)*100
% Control min=((sample−LC)/(HC−LC))*100

The results in this text go back to US20240190893A1, “MACROCYCLIC 1,3-BRIDGED 6-CHLORO-7-PYRAZOL-4-YL-1 H-INDOLE-2-CARBOXYLATE AND 6-CHLORO-7-PYRIMIDIN-5-YL-1H-INDOLE-2-CARBOXYLATE DERIVATIVES AS MCL-1 INHIBITORS FOR THE TREATMENT OF CANCER” (JANSSEN PHARMACEUTICA NV, priority 2021, published 2024).

The term pKi denotes −log10 of the Ki, conventionally taken in molar units. Higher therefore signals a low Ki. A word on the AC50: it is the concentration giving half of the maximal activity seen. The low end stands for greater potency, the high end for weaker potency.

pKi: −log10 of the molar value.

Sequence of Myeloid Cell Leukemia 1 (Mcl-1) (Q07820 whole entry): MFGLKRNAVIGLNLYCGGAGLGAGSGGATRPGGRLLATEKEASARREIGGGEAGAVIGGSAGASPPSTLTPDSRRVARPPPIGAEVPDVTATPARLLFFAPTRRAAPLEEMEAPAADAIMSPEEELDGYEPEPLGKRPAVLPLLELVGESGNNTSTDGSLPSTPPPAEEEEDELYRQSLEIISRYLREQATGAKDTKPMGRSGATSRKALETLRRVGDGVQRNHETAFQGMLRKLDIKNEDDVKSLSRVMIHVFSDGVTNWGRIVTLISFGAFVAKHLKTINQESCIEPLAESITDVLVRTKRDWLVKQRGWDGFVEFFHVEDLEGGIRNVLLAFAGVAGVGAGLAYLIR

`Cc1nn(C)c(C)c1-c1c(Cl)ccc2c3c(C(=O)O)n(c12)CCCSCc1cc(n(C)n1)CCc1cc(c2ccc(F)cc2c1)OCCC3` (single isomer, unassigned) [Compound 2]: the pKi in assay [1] is 10.08. The same molecule yielded an AC50 in assay [2] (Homo sapiens, MOLP-8, 2 h) of 130 nM. For the molecule `Cc1nn(C)c(C)c1-c1c(Cl)ccc2c3c(C(=O)O)n(c12)CCCSCc1cc(n(C)n1)CCc1cc(c2ccc(F)cc2c1)OCCC3` (single isomer, unassigned) [Compound 3], the pKi in assay [1] is 9.88. For the same molecule, in assay [2], the AC50 stood at 207 nM. For `Cc1nn(C)c(C)c1-c1c(Cl)ccc2c3c(C(=O)O)n(c12)CCCS(=O)(=O)Cc1cc(n(C)n1)CCc1cc(c2ccc(F)cc2c1)OCCC3` (single isomer, unassigned) [Compound 4], in assay [1], the pKi is 9.60. This molecule also yielded an AC50 in assay [2] (Homo sapiens, MOLP-8, 2 h) of 7030 nM. In assay [1], `Cc1nn(C)c(C)c1-c1c(Cl)ccc2c3c(C(=O)O)n(c12)CCCS(=O)(=O)Cc1cc(n(C)n1)CCc1cc(c2ccc(F)cc2c1)OCCC3` (single isomer, unassigned) [Compound 5] had a pKi of 9.56. This molecule showed an AC50 in assay [2] of 7270 nM. For `Cc1nn(C)c(C)c1-c1c(Cl)ccc2c3c(C(=O)O)n(c12)CCSCc1cc(n(C)n1)CCc1cc(c2ccc(F)cc2c1)OCCC3` (single isomer, unassigned) [Compound 6], in assay [1], the pKi was 10.25. For the same molecule, in assay [2] (Homo sapiens, MOLP-8, 2 h), the AC50 came out at 237 nM. Consider `Cc1nn(C)c(C)c1-c1c(Cl)ccc2c3c(C(=O)O)n(c12)CCSCc1cc(n(C)n1)CCc1cc(c2ccc(F)cc2c1)OCCC3` (single isomer, unassigned) [Compound 7], for which the pKi in assay [1] is 10.07. In assay [2], this molecule had a concentration at half-maximal activity (AC50) of 231 nM. The molecule `COCCn1nc(C)c(-c2c(Cl)ccc3c4c(C(=O)O)n(c23)CCCSCc2cc(n(C)n2)CCc2cc(c3ccc(F)cc3c2)OCCC4)c1C` (single isomer, unassigned) [Compound 9] had a pKi in assay [1] of 9.86. For the same molecule, in assay [2] (Homo sapiens, MOLP-8, 2 h), half-maximal activity (AC50) was put at 232 nM. `COCCn1nc(C)c(-c2c(Cl)ccc3c4c(C(=O)O)n(c23)CCCSCc2cc(n(C)n2)CCc2cc(c3ccc(F)cc3c2)OCCC4)c1C` (single isomer, unassigned) [Compound 10] had a pKi in assay [1] of 10.03. Moreover, the concentration at half-maximal activity (AC50) in assay [2] is 160 nM. `Cc1nn(C)c(C)c1-c1c(Cl)ccc2c3c(C(=O)O)n(c12)CCSCc1cc(n(C)n1)CCc1cc(c2ccccc2c1)OCCC3` (single isomer, unassigned) [Compound 11]: the pKi in assay [1] was 9.51. The molecule further yielded an AC50 in assay [2] (Homo sapiens, MOLP-8, 2 h) of 1460 nM. With `Cc1nn(C)c(C)c1-c1c(Cl)ccc2c3c(C(=O)O)n(c12)CCSCc1cc(n(C)n1)CCc1cc(c2ccccc2c1)OCCC3` (single isomer, unassigned) [Compound 12], in assay [1], the negative logarithm of the Ki (pKi) is 9.40. The AC50 in assay [2] came to 1350 nM. Regarding `Cc1nn(C)c(C)c1-c1c(Cl)ccc2c3c(C(=O)O)n(c12)CCSCc1cc(n(C)n1)CSc1cc(c2ccccc2c1)OCCC3` (single isomer, unassigned) [Compound 13], the negative-log Ki (pKi) in assay [1] was 9.41. Further, in assay [2] (Homo sapiens, MOLP-8, 2 h), the AC50 stood at 1340 nM. As to `Cc1nn(C)c(C)c1-c1c(Cl)ccc2c3c(C(=O)O)n(c12)CCSCc1cc(n(C)n1)CSc1cc(c2ccccc2c1)OCCC3` (single isomer, unassigned) [Compound 14], the pKi in assay [1] is 9.37. For the same molecule, the AC50 in assay [2] was 1540 nM. The corresponding values for `Cc1c(-c2c(Cl)ccc3c4c(C(=O)O)n(c23)CCCSCc2cc(n(C)n2)CCc2cc(c3ccc(F)cc3c2)OCCC4)c(CO)nn1C` (single isomer, unassigned) [Compound 16] are 10.25 and 414 nM. In the case of `Cc1c(-c2c(Cl)ccc3c4c(C(=O)O)n(c23)CCCSCc2cc(n(C)n2)CCc2cc(c3ccc(F)cc3c2)OCCC4)c(CO)nn1C` (single isomer, unassigned) [Compound 17], the pKi in assay [1] is 10.10. The AC50 in assay [2] is 1830 nM.

Turning to `COCCOCc1nn(C)c(C)c1-c1c(Cl)ccc2c3c(C(=O)O)n(c12)CCCSCc1cc(n(C)n1)CCc1cc(c2ccc(F)cc2c1)OCCC3` (single isomer, unassigned) [Compound 20], the negative-log Ki (pKi) in assay [1] was 10.14. This molecule also returned a half-maximal activity concentration (AC50) in assay [2] of 173 nM. `COCCOCc1nn(C)c(C)c1-c1c(Cl)ccc2c3c(C(=O)O)n(c12)CCCSCc1cc(n(C)n1)CCc1cc(c2ccc(F)cc2c1)OCCC3` (single isomer, unassigned) [Compound 21] had a pKi in assay [1] of 9.81. In addition, in assay [2], the activity was half-maximal at 1010 nM (AC50). For the molecule `Cc1nn(C)c(C)c1-c1c(Cl)ccc2c3c(C(=O)O)n(c12)CCCSCc1cc(n(C)n1)CCc1cc(c2ccc(F)cc2c1)OCCC3` [Compound 1], in assay [1], the negative logarithm of the Ki (pKi) was 9.90. In assay [2] (Homo sapiens, MOLP-8, 2 h), this molecule had an AC50 of 90.5 nM. For the molecule `Cn1cc(-c2c(Cl)ccc3c4c(C(=O)O)n(c23)CCCSCc2cc(n(C)n2)CCc2cc(c3ccc(F)cc3c2)OCCC4)cn1` [Compound 8], the pKi in assay [1] is 9.01. Besides, half-maximal activity in assay [2] (Homo sapiens, MOLP-8, 2 h) (AC50) was put at 1340 nM.

`Cn1nc2cc1CCc1cc(c3ccc(F)cc3c1)OCCCc1c(C(=O)O)n(c3c(-c4cncnc4)c(Cl)ccc13)CCC[S+]([O-])C2` (stereo not drawn) [Compound 15] gave a pKi in assay [1] of 9.37. `Cc1nn(C)c(C)c1-c1c(Cl)ccc2c3c(C(=O)O)n(c12)CCCSCc1cc(n(C)n1)CSc1cc(c2ccccc2c1)OCCC3` [Compound 18] had an AC50 in assay [2] of 3640 nM. As for `Cc1nn(C)c(C)c1-c1c(Cl)ccc2c3c(C(=O)O)n(c12)CCCSCc1cc(n(C)n1)CSc1cc(c2ccccc2c1)OCCC3` [Compound 19], half-maximal activity in assay [2] (AC50) was put at 740 nM.
